Test results reported in ChEMBL document CHEMBL1201862, “PubChem BioAssay data set” (2004).
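Test compounds were applied to cells in 96-well plates for 48 hours at 5 doses. GI50 = concentration required for 50% inhibition of growth.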 Activity calls are given as the source filed them. Rule as the data show it: active = GI50 up to about 1.1 µM and inactive = higher.

How the values were obtained:
Assay in all cases: DTP human tumour cell line panel, 48 h
ACHN = tested on: ACHN
HCT-116 = tested on: HCT-116
HCT-15 = tested on: HCT-15
HOP-62 = tested on: HOP-62
M14 = tested on: M14
NCI-H226 = tested on: NCI-H226
OVCAR-3 = tested on: OVCAR-3
OVCAR-4 = tested on: OVCAR-4
OVCAR-5 = tested on: OVCAR-5
SF-268 = tested on: SF-268
SK-MEL-2 = tested on: SK-MEL-2
SK-MEL-5 = tested on: SK-MEL-5
SK-OV-3 = tested on: SK-OV-3
SN12C = tested on: SN12C
SNB-75 = tested on: SNB-75
SK-MEL-28 = tested on: SK-MEL-28
LOX IMVI = tested on: LOX IMVI

SMILES | GI50 (ACHN) | GI50 (HCT-116) | GI50 (HCT-15) | GI50 (HOP-62) | GI50 (M14) | GI50 (NCI-H226) | GI50 (OVCAR-3) | GI50 (OVCAR-4) | GI50 (OVCAR-5) | GI50 (SF-268) | GI50 (SK-MEL-2) | GI50 (SK-MEL-5) | GI50 (SK-OV-3) | GI50 (SN12C) | GI50 (SNB-75) | GI50 (SK-MEL-28) | GI50 (LOX IMVI)
Cn1cnc2nc(Cl)nc(NC(C)(C)C(C)(C)O)c21 | > 100 µM (inactive) | > 100 µM (inactive) | > 100 µM | > 100 µM (inactive) | > 100 µM (inactive) | > 100 µM (inactive) | > 100 µM (inactive) | > 100 µM (inactive) | > 100 µM (inactive) | > 100 µM (inactive) | > 100 µM (inactive) | > 100 µM (inactive) | > 100 µM (inactive) | > 100 µM (inactive) | > 100 µM (inactive) | – | –
c1ccc2c(c1)CCCc1cc3ccccc3nc1-2 | > 100 µM (inactive) | > 100 µM (inactive) | > 100 µM | > 100 µM (inactive) | > 100 µM (inactive) | – | > 100 µM (inactive) | 68.1 µM (inactive) | > 100 µM (inactive) | 92.5 µM (inactive) | > 100 µM (inactive) | 92.5 µM (inactive) | 38.7 µM (inactive) | > 100 µM (inactive) | 75.3 µM (inactive) | > 100 µM (inactive) | –
C=CCNC(=S)N/C=C1\C(=O)Oc2ccccc2C1=O | 32.1 µM (inactive) | 49.5 µM (inactive) | 60.5 µM | – | 63.4 µM (inactive) | 28.9 µM (inactive) | 82 µM (inactive) | > 100 µM (inactive) | 62.4 µM (inactive) | 36 µM (inactive) | 13.2 µM (inactive) | 43.8 µM (inactive) | 44.4 µM (inactive) | 46.5 µM (inactive) | 18.7 µM (inactive) | > 100 µM (inactive) | 95.5 µM (inactive)
C=CCC1=C(C)C[C@@H]2CCC(=O)C=C12 | > 100 µM (inactive) | > 100 µM (inactive) | > 100 µM | > 100 µM (inactive) | > 100 µM (inactive) | – | > 100 µM (inactive) | > 100 µM (inactive) | > 100 µM (inactive) | > 100 µM (inactive) | > 100 µM (inactive) | > 100 µM (inactive) | > 100 µM (inactive) | > 100 µM (inactive) | > 100 µM (inactive) | > 100 µM (inactive) | > 100 µM (inactive)
CC12OC3(O)C4C5CC(C6C5C3C61)C42 (configuration not stated) | > 100 µM (inactive) | > 100 µM (inactive) | > 100 µM | > 100 µM (inactive) | 29.4 µM (inactive) | > 100 µM (inactive) | – | > 100 µM (inactive) | – | > 100 µM (inactive) | > 100 µM (inactive) | – | > 100 µM (inactive) | > 100 µM (inactive) | > 100 µM (inactive) | > 100 µM (inactive) | –
C/C(CC(=O)Nc1ccc([N+](=O)[O-])cc1)=N\Nc1ccc([N+](=O)[O-])cc1[N+](=O)[O-] | 10.8 µM (inactive) | 59.7 µM (inactive) | 7.66 µM | 50.1 µM (inactive) | > 100 µM (inactive) | 52.7 µM (inactive) | 98.2 µM (inactive) | – | > 100 µM (inactive) | 62.1 µM (inactive) | > 100 µM (inactive) | 47.4 µM (inactive) | > 100 µM (inactive) | – | > 100 µM (inactive) | > 100 µM (inactive) | 10.7 µM (inactive)
CC(C)=CC1C[C@H](C2CC=C3C2(C)CCC2[C@@]3(C)C(=O)CC3[C@]2(C)C=CC(=O)[C@]3(C)CO)CO1 (some centres not stated) | 13.2 µM (inactive) | 3.37 µM (inactive) | 14.4 µM | 12.7 µM (inactive) | 3.12 µM (inactive) | – | 4.84 µM (inactive) | 10.7 µM (inactive) | 21 µM (inactive) | 5.82 µM (inactive) | 5.45 µM (inactive) | 10 µM (inactive) | 16.6 µM (inactive) | 20.3 µM (inactive) | 8.04 µM (inactive) | 5.2 µM (inactive) | 3.76 µM (inactive)
O=C(NCCO)c1ccc([N+](=O)[O-])cc1 | – | – | > 100 µM | > 100 µM (inactive) | > 100 µM (inactive) | > 100 µM (inactive) | > 100 µM (inactive) | – | – | > 100 µM (inactive) | > 100 µM (inactive) | > 100 µM (inactive) | > 100 µM (inactive) | > 100 µM (inactive) | > 100 µM (inactive) | > 100 µM (inactive) | > 100 µM (inactive)
Cc1cc2c(=O)c3ccccc3[nH]c2c(C(=O)O)c1C | > 100 µM (inactive) | 76 µM (inactive) | > 100 µM | > 100 µM (inactive) | – | – | > 100 µM (inactive) | > 100 µM (inactive) | – | – | > 100 µM (inactive) | – | – | > 100 µM (inactive) | 31.6 µM (inactive) | > 100 µM (inactive) | –
CC(=O)Nc1ccc(S(=O)(=O)N/N=C/CN2C(=O)c3ccccc3C2=O)cc1 | > 100 µM (inactive) | > 100 µM (inactive) | > 100 µM | > 100 µM (inactive) | > 100 µM (inactive) | > 100 µM (inactive) | – | > 100 µM (inactive) | – | > 100 µM (inactive) | > 100 µM (inactive) | > 100 µM (inactive) | – | > 100 µM (inactive) | > 100 µM (inactive) | – | > 100 µM (inactive)
